Results reported in patent US20160025711A1, “FLUORESCENT MARKERS AND METHODS FOR IMAGING DISEASES” (BOARD OF SUPERVISORS OF LOUISIANA STATE UNIVERSITY AND …, priority 2013, published 2016).
Where two headings read alike, the source gives them in different places.

Experiments:
[1] = Voltammetric redox potentials and Rehm-Weller calculation of PeT energy; assay type: physicochemical
Description: Embodiments of the present invention provide a probe (Q3NI) having fluorescence signal of a naphthalimide reporter quenched via oxidative electron transfer (OeT) by a covalently attached quinone propionic acid motif. See, e.g. FIG. 3A. The Q3NI provides the novel mechanism of reporter quenching by carefully tuning the electronic and optical properties of the quinone (Q3) OeT quencher and the naphthalimide reporter (NI), due to extant naphthalimide reporters that are quenched by reductive electron-transfer (ReT). The Rehm-Weller equation,
(§1) was used to examine possible quinone propionic acid quenchers and 1,8-naphthalimide reporters as well as linkers between the OeT quencher and the NI reporter, so as to ensure that quenching is thermodynamically feasible and efficient. In this equation, ED is the redox potential of the donor and EA that of the acceptor, ΔG00 is the energy of the first excited singlet state of the reporter, and e^2/εd is the Coulombic interaction energy of the ion pair, known to be 0.06 eV. The energy of the first excited singlet state of NI was measured to be 3.06 eV. […] The quinone was attached to the naphthalimide via an N-methylethanolamine linker through a carbamate to the amine of the naphthalimide ring. This linker imparts three properties on Q3NI: the linker is sufficiently short to allow for a high probability of electron transfer, the electron-withdrawing carbamate yields a favorable ΔGPeT, and the presence of the tertiary amide provides enhanced environmental stability. As a result, the fluorescence of Q3NI in pH 7.4, 0.1 M PBS is effectively quenched in comparison to that of the free NI reporter, as noted by their spectra in FIGS. 3B and 3C and respective fluorescence quantum yields Φ of 0.007 and 0.23 obtained using quinine sulfate as standard. […] The 33-fold fluorescence enhancement for NI versus Q3NI and very large Stokes shift of 116 nm (λmax abs=374 run, λmax em=490 nm) bode well for use of Q3NI as a multifunctional turn-on probe for sensing and imaging applications that utilize reductive stimuli capable of initiating removal of the reduced quinone group.

[2] = tested on: fixed samples; experiment: Reporter retention in paraformaldehyde-fixed cell samples; assay type: cell-based; conditions: paraformaldehyde fixing; fixed samples stored for 10 months in the laboratory ambient
Description: (§2) There was no indication of reporter in the nucleus, pointing to the lack of NQOI there; this is in contrast to previous work using immunohistochemical staining of penneabilized, fixed cells. The average cytosolic signal was 9 times higher in A549 cells versus NQOI-negative H596 cells, while it was 23 times higher in HT-29 cells compared to the NQOI-negative H596 cells. […] Accumulation of the basic (secondary amine pKa ˜11) NI occurred in acidic late endosomal and lysosomal vesicles, a beneficial outcome that leads to enhanced intracellular retention of NI. […] Collectively, there is great potential for use of our probe/reporter system for ex vivo quantitative analysis of excised tumor cells and long-term in vivo and in vitro imaging.

[3] = Fluorescence spectra and quantum yield in pH 7.4, 0.1 M PBS; assay type: physicochemical; conditions: for fluorescence quantum yield Φ: quinine sulfate as standard
Description: as §1

[4] = pKa of secondary amine of reporter; assay type: physicochemical
[5] = tested on: HT-29; experiment: Flow cytometry assay of Q3NI activation; assay type: cell-based, human; conditions: 10 min or 60 min incubation; λex=405 nm, λem=457/60 nm; 10,000 cells
Protocol: (§3) Flow cytometry assays were used to assess the applicability of the Q3NI probe to rapidly detect and quantify tumor cells containing hNQO1. See, FIG. 8. The probe was incubated in a suspension of HT-29, A549, H596, and H446 (a small-cell lung carcinoma known to be devoid of hNQO1 activity) cells for either 10 min or 60 min, and a flow cytometer was used to measure fluorescence (λex=405 nm, λem=457/60 nm) in 10,000 individual cells. […] Importantly, the sustained low fluorescence observed with the H446 cells (FIG. 8) points to the intracellular stability of Q3NI (lack of nonspecific activation).

[6] = tested on: H596; experiment: Flow cytometry assay of Q3NI activation; assay type: cell-based, human; conditions: 10 min or 60 min incubation; λex=405 nm, λem=457/60 nm; 10,000 cells
Protocol: as §3

[7] = tested on: H446; experiment: Flow cytometry assay of Q3NI activation; assay type: cell-based, human; conditions: 10 min or 60 min incubation; λex=405 nm, λem=457/60 nm; 10,000 cells
Protocol: as §3

[8] = tested on: A549; experiment: Flow cytometry assay of Q3NI activation; assay type: cell-based, human; conditions: 10 min or 60 min incubation; λex=405 nm, λem=457/60 nm; 10,000 cells
Protocol: as §3

[9] = molecular target: human NAD(P)Rquinone oxidoreductase isozyme 1 (hNQO1) (Homo sapiens, UniProt P15559); experiment: Michaelis-Menten kinetics of hNQO1 activation of the probe (NI reporter production); assay type: biochemical
Sequence of human NAD(P)Rquinone oxidoreductase isozyme 1 (hNQO1) (P15559 whole entry): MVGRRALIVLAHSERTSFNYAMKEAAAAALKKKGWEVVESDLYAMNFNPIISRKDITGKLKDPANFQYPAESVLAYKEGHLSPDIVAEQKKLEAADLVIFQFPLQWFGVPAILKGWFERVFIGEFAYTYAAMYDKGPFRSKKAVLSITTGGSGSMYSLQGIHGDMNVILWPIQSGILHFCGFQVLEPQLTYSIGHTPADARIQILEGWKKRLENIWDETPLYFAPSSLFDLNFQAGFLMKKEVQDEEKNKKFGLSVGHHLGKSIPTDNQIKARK
Description: In embodiments of the present in invention hNQO 1 reduces fluorescent probes cloked with a quinone moiety. In embodiments of the present invention, Q3NI is a probe capable of activation by hNQO1 to yield the NI reporter at a significant rate. Apparent kinetic parameters of Q3NI were obtained from Michaelis-Menten kinetic treatment of the time-dependent NI reporter production, namely the Michaelis constant (Km), maximum velocity (Vmax), catalytic constant (kcat), and substrate specificity (kcat/Km). The high rate of NI reporter production under in vitro conditions is readily apparent in FIG. 7; after 5 min, a fluorescent signal has been attained that is 22% of the maximum achievable, yielding 2.2×10^−7 M of released reporter.

[10] = tested on: A549 cells; experiment: Wide-field fluorescence imaging of fixed cells; assay type: cell-based, human; conditions: 10 min exposure
Description: as §2

[11] = tested on: HT-29 cells; experiment: Wide-field fluorescence imaging of fixed cells; assay type: cell-based, human; conditions: 10 min exposure
Description: as §2

[12] = tested on: H596 cells; experiment: Wide-field fluorescence imaging of fixed cells; assay type: cell-based, human; conditions: 10 min exposure
Description: as §2

[13] = tested on: HT-29; experiment: Unaided-eye visualization of cultured cells with handheld 365 nm lamp; assay type: cell-based, human; conditions: 2×10^−5 M Q3NI, 10 min incubation; 3.69×10^6 total cells
Protocol: (§4) Embodiments of the present invention may allow for cancer cells to be rapidly visualized and differentiated. […] After a 10 min incubation period in a cell culture solution containing 2×10^−5 M Q3NI, it was possible to differentiate between the various substrate-cultured cells (4.84 cm^2) using only a handheld fluorescent lamp emitting at 365 nm and the unaided eye. […] The ability to visually determine the presence of hNQO1 in a small number of cells is due to the marked difference in fluorescence from the unquenched NI reporter (Φ=0.23) and quenched Q3NI probe (Φ=0.007) and the large Stokes shift of the NI reporter that results in fluorescence emission in the visible spectrum (400 nm to ˜600 nm). These outcomes point to use of the Q3NI probe sensor in the real-time, visible (without the aid of imaging equipment), and accurate determination of tumor/healthy tissue borders so as to allow for surgical resection of tumors with small foci.

[14] = tested on: H596; experiment: as above; assay type: cell-based, human; conditions: 2×10^−5 M Q3NI, 10 min incubation; 3.96×10^6 total cells
Protocol: as §4

[15] = tested on: A549; experiment: as above; assay type: cell-based, human; conditions: 2×10^−5 M Q3NI, 10 min incubation; 5.72×10^6 total cells
Protocol: as §4

[16] = tested on: A549 cells; experiment: 2-photon microscopy of living cells; assay type: cell-based, human; conditions: 2.0×10^−5 M Q3NI in complete growth medium
Description: (§5) Multiphoton (MP) microscopy imaging of cells and tissues may be more advantageous than traditional fluorescence microscopy, because use of the characteristic long-wavelength photons offers higher fluorophore and cellular photostability that provides extended imaging duration, less background signal from out-of-focus excitation and scattering events, and deeper penetration depth. In addition, MP imaging is ideal for direct observation of targets in their physiological environment and ex vivo thick-specimen sampling where 2D and 3D maps can be generated. […] As before, the signal appears somewhat heterogeneous throughout the cytosolic space of the HT-29 and A549 cells due to NI accumulation in acidic organelles. To ensure Q3NI and NI had little effect on cell health, cells were incubated in a 2.0×10^−5 M Q3NI solution in complete growth medium for 1 h and 1 day, and then cell viability was assessed with a trypan blue assay. After 1 h, cell viability for HT-29, A549, and H596 was 97.7%, 98.8%, and 100%, while it was 97.7%, 98.7%, and 98.4% after 24 h.

[17] = tested on: H596; experiment: 2-photon microscopy of living cells; assay type: cell-based, human; conditions: 2.0×10^−5 M Q3NI in complete growth medium
Description: as §5

[18] = tested on: H446; experiment: 2-photon microscopy of living cells; assay type: cell-based, human; conditions: 2.0×10^−5 M Q3NI in complete growth medium
Description: as §5

[19] = tested on: HT-29 cell line; experiment: 2-photon microscopy of living cells; assay type: cell-based, human; conditions: 2.0×10^−5 M Q3NI in complete growth medium
Description: as §5

[20] = tested on: HT-29; experiment: Trypan blue cell viability assay; assay type: cell-based, human; conditions: 2.0×10^−5 M Q3NI
Description: as §5

[21] = tested on: H596; experiment: Trypan blue cell viability assay; assay type: cell-based, human; conditions: 2.0×10^−5 M Q3NI
Description: as §5

[22] = tested on: A549; experiment: Trypan blue cell viability assay; assay type: cell-based, human; conditions: 2.0×10^−5 M Q3NI
Description: as §5

[23] = other dyes applied to cancer detection and localization; cited from earlier work

CCCCN1C(=O)c2cccc3c(NC(=O)OCCNC)ccc(c23)C1=O [NI]
energy of the first excited singlet state [1]: 3.06 eV
ED, redox potential of the donor ([1]; voltammetric measurements): 1.74 V
efflux of reporter from cells / fluorescence retention [2]: no apparent efflux
fluorescence enhancement for NI versus Q3NI ([3]; pH 7.4, 0.1 M PBS): 33 fold
fluorescence quantum yield Φ ([3]; pH 7.4, 0.1 M PBS): 0.23
Stokes shift ([3]; λmax abs=374, λmax em=490 nm): 116 nm
secondary amine pKa [4]: ~11

CCCCN1C(=O)c2cccc3c(NC(=O)OCCN(C)C(=O)CC(C)(C)C4=C(C)C(=O)C(C)=C(C)C4=O)ccc(c23)C1=O [Q3NI]
ΔGPeT, energy change for the OeT process ([1]; Rehm-Weller equation): −0.37 eV
EA, redox potential of the acceptor (quinone propionic acid group) ([1]; voltammetric measurements): −1.01 V
flow cytometry fluorescence histogram [5]: high-intensity, unimodal distribution of signals
flow cytometry fluorescence histogram [6]: minimal fluorescence
flow cytometry fluorescence histogram [7]: minimal fluorescence
flow cytometry fluorescence histogram [8]: high-intensity, unimodal distribution of signals
fluorescent signal as % of the maximum achievable ([9]; after 5 min, in vitro): 22%
released reporter ([9]; after 5 min, in vitro): 220 nM
catalytic constant (kcat) ([9]; apparent, FIG. 7): 0.019 ± 0.001 s⁻¹
maximum velocity (Vmax) ([9]; apparent, FIG. 7): 0.037±0.002 μmol min^−1 mg·NQO^−1
Km ([9]; apparent, from time-dependent NI reporter production, FIG. 7, read-out: Michaelis constant (Km)): 3.86 ± 0.79 µM
average cytosolic signal versus NQO1-negative H596 cells [10]: 9 times
average cytosolic signal versus NQO1-negative H596 cells [11]: 23 times
intracellular NI fluorescence signal [12]: minimal signal
appearance under 365 nm handheld lamp, unaided eye [13]: fluorescent blue
appearance under 365 nm handheld lamp, unaided eye [14]: no apparent emission
appearance under 365 nm handheld lamp, unaided eye [15]: fluorescent blue
average fluorescence signal compared to H596 cells [16]: 13 fold
average fluorescence signal versus H446 cells [16]: 3.66×10^4 fold
fluorescence signal from NI [17]: minimal signal
fluorescence signal from NI [18]: minimal signal
cytosolic intensity compared to H446 cells [19]: 4.51×10^4 fold
cytosolic intensity compared to H596 cells [19]: 15 fold
cell viability ([20]; after 1 h): 97.7%
cell viability ([20]; after 24 h): 97.7%
cell viability ([21]; after 1 h): 100%
cell viability ([21]; after 24 h): 98.4%
cell viability ([22]; after 1 h): 98.8%
cell viability ([22]; after 24 h): 98.7%
fluorescence quantum yield Φ ([3]; pH 7.4, 0.1 M PBS): 0.007

CC1(C)C(/C=C/C=C/C=C/C=C2\N(CCCCS(=O)(=O)O)c3ccc4ccccc4c3C2(C)C)=[N+](CCCCS(=O)(=O)[O-])c2ccc3ccccc3c21 [indocyanine green]
fluorescence quantum yield Φ [23]: 0.0028
